In US20050123478A1, “Agent for measurement of singlet oxygen” (Daiichi Pure Chemicals Co., Ltd, priority 2000, published 2005):

What was measured:
[1] = Light stability (photobleaching) of the endoperoxide under continuous excitation light; format: physicochemical; conditions: 5.0 μM aqueous solution, 0.1 M phosphate buffer (pH 7.4), 0.1% DMSO, excitation light 491 nm, 37° C., fluorescence at 520 nm
Method: 5.0 μM aqueous solutions of DMAX-EP (endoperoxide of Compound 11 in the above scheme) and DPAX-1-EP (endoperoxide of Compound 13 described in International Patent Publication WO99/51586, Example 1) [0.1 M phosphate buffer (pH 7.4) containing 0.1% DMSO as a cosolvent]were each placed in a fluorescent cell and exposed to an excitation light of 491 nm at 37° C. with stirring, and fluorescence was measured at 520 nm by using a fluorometer while the solution was continuously exposed to the excitation light.

[2] = Measurement of singlet oxygen generated by naphthalene endoperoxide EP-1 (fluorescence)
Method: Singlet oxygen was generated continuously with time under a neutral condition at 37° C. in given amounts by using a naphthalene endoperoxide compound EP-1 (Saito, I, et al., J. Am. Chem. Soc., 107, pp. 6329-6334, 1985) as a singlet oxygen generation system. Fluorescence was measured in the presence of DMAX and DPAX-1 [100 mM phosphate buffer (pH 7.4), DMSO (0.1%)].

SMILES	Photobleaching, times slower than that of DPAX-1-EP [1]	Increase of fluorescence intensity with 0.5 mM EP-1 compared with 10 mM EP-1 in the presence of DPAX-1 ([2]; 100 mM phosphate buffer (pH 7.4), DMSO (0.1%), 37° C.)	Fluorescence intensity on generation of singlet oxygen ([2]; EP-1 increased from 0.1 mM to 0.5 mM and to 1.0 mM, 100 mM phosphate buffer (pH 7.4), DMSO (0.1%), 37° C.)	Sensitivity for singlet oxygen compared with DPAX-1 ([2]; EP-1 singlet oxygen generation system, pH 7.4, 37° C.)
CC12OOC(C)(c3ccccc31)c1cc(-c3c4ccc(=O)cc-4oc4cc(O)ccc34)c(C(=O)O)cc12 (stereo not shown) [DMAX-EP]	54 times			
Cc1c2ccccc2c(C)c2cc(-c3c4ccc(=O)cc-4oc4cc(O)ccc34)c(C(=O)O)cc12 [DMAX]		far larger	increase of fluorescence intensity dependent on the generated amount of singlet oxygen	much higher sensitivity
